A short description of the series: wn = mass fraction of the nth substance listed. The conditions noted are these: 88.35 kPa, Liquid; for viscosity: Capillary tube (Ostwald / Ubbelohde) method.

Numbers after ± are expanded uncertainties.

The viscosity is the resistance of a fluid to flow. For orientation: mass density means the mass of a sample divided by its volume. As to `O=S(=O)([O-])[O-].[K+].[K+]` [potassium sulfate] + O, the viscosity is, setting by setting: (298.15 K, w1 = 0.1156) 1.015 ± 0.1 mPa·s; (313.15 K, w1 = 0.1337) 0.7917 ± 0.08 mPa·s. In addition, the mass density is, setting by setting: (298.15 K, weighing bottle method, w1 = 0.1156) 1084.3 ± 11 kg/m3; (313.15 K, weighing bottle method, w1 = 0.1337) 1097.7 ± 11 kg/m3.
In the case of `O=P([O-])(O)O.[K+]` [monopotassium phosphate] + O, the viscosity (298.15 K, w1 = 0.2075) came out at 1.198 ± 0.12 mPa·s and the viscosity (313.15 K, w1 = 0.2579) stood at 1.013 ± 0.1 mPa·s. For the same compound, the mass density runs as follows: (298.15 K, Weighing bottle method, w1 = 0.2075) 1144 ± 11 kg/m3; (313.15 K, Weighing bottle method, w1 = 0.2579) 1187.2 ± 12 kg/m3.
Regarding `[Cl-].[K+]` [potassium chloride] + O, the viscosity was 0.8122 ± 0.081 mPa·s (298.15 K, w1 = 0.2672) and 0.6778 ± 0.068 mPa·s (313.15 K, w1 = 0.29). The mass density reads like this: (298.15 K, Weighing bottle method, w1 = 0.2672) 1180 ± 12 kg/m3; (313.15 K, Weighing bottle method, w1 = 0.29) 1192 ± 12 kg/m3.

Source of the values: the NIST ThermoML archive (doi:10.1016/j.fluid.2017.04.010).
